# In patent US8742068B2, “Treatment and prevention of inflammatory diseases and autoimmune diseases” (Universiteit Utrecht Holding B.V., priority 2007, dated 2014):
# Tested on: proteoglycan induced arthritis
# Assay: Proteoglycan induced arthritis (PGIA), intranasal pre-treatment
# Assay type: in vivo, Balb/c mice
# Conditions: Example 8: 30 μg intranasally on day −7, −5 and −3 before disease induction
# Excerpt: The proteoglycan induced arthritis model (PGIA) is a murine model of rheumatoid arthritis and is described to be a T-cell dependent and antibody mediated model. In the model arthritis is induced by two times injection of human proteoglycan (hPG) in a synthetic adjuvant dimethyldioctadecylammonium (DDA), see Hanyecz A. et al., Achievement of a synergistic adjuvant effect on arthritis induction by activation of innate immunity and forcing the immune response toward the Th1 phenotype. Arthritis Rheum. 2004 50(5):1665-76.
# Because arthritis is induced by immunization with a synthetic adjuvant, instead of complete Freund's adjuvant (CFA), the role of interfering immune responses, induced by microbial Hsp's present in CFA, can be excluded. Due to cross reactive responses, between the human and the mouse (self) PG, a chronic and relapsing arthritis develops. After disease development, arthritis severity is scored by clinical assessment of thickness, redness and deformation of the joints on a scale of 1-4 per paw.
# Ten female Balb/c mice, retired breeders obtained from Charles River, were randomly divided in two groups. To evaluate the effect of intra nasal treatment with Mycobacterial HSP70 (SEQ ID NO: 55) on PGIA 30 μg Hsp70 in 10 μl PBS was administered on day −7, −5 and −3 before disease induction. PGIA was induced by two times i.p. injection with 400 μg hPG and 2 mg DDA in 200 μl PBS. Subsequently developed arthritis scores were assessed by clinical evaluation as described in Example 7.
# Fifteen female Balb/c mice, retired breeders obtained from Charles River, were randomly divided in three groups (five mice per group). To evaluate the effect of intranasal treatment with Hsp70-derived peptides “B1” (SEQ ID NO: 1) and a mixture of C1 (SEQ ID NO: 3) and mC1a (SEQ ID NO: 4) (designated herein as “C1mix”) on PGIA 100 μg peptide in 10 μl PBS was administered on day −7, −5 and −3 before disease induction. Ovalbumin peptide 323-339 (pOva) was used as a control peptide. PGIA was induced by two times i.p. injection with 400 μg hPG and 2 mg DDA in 200 μl PBS. Subsequently developed arthritis scores were assessed by clinical evaluation.
# Twelve female Balb/c mice, retired breeders obtained from Charles River, were randomly divided in two groups (six mice per group). To evaluate the effect of intra nasal treatment with Hsp70 derived mC1 a on PGIA 100 μg peptide in 10 μl PBS was administered on day −14, −11, −7 and −4 before disease induction. Ovalbumin peptide (pOva) was used as a control peptide. PGIA was induced by two times i.p. injection with 400 μg hPG and 2 mg DDA in 200 μl PBS. Subsequently developed arthritis scores were assessed by clinical evaluation.
# Eighteen female Balb/c mice, retired breeders obtained from Charles River, were randomly divided in three groups (six mice per group). To evaluate the effect of intranasal (i.n.) treatment with Hsp70 derived peptides C1 and its mouse homologue mC1a on PGIA 100 μg peptide in 10 μl PBS was administered on day −7, −5 and −3 before disease induction (see FIG. 28). Ovalbumin peptide (pOva) was used as a control peptide. PGIA was induced by two times i.p. injection with 300 μg hPG and 2 mg DDA in 200 μl PBS. Subsequently developed arthritis scores were assessed by clinical evaluation. • Group A: (pOva): Treated with 100 μg pOva in 10 μl PBS intranasally • Group B (C1): Treated with 100 μg C1 in 10 μl PBS intranasally • Group C (mC1a): Treated with 100 μg mC1a in 10 μl PBS intranasally
substance,measurement,value
HSP70: full length Mycobacterial HSP70 protein (SEQ ID NO: 55),arthritis development (arthritis score),can suppress arthritis development
